From the METLIN SMRT retention time set (Domingo-Almenara et al. 2019)

Test: gradient 5% acetonitrile 3 min, to 50% in 2 min, to 85% in 15 min, held 3 min, 100 µL/min
Conditions: column: Zorbax Extend-C18 2.1 x 50 mm; eluents: water / acetonitrile, 0.1% formic acid
Outline: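 Mixtures of ~100 pure standards were chromatographed on a Zorbax Extend-C18 column (2.1 × 50 mm, 1.8 μm) at 100 μL/min using water and acetonitrile, each with 0.1% formic acid. Detection used a quadrupole time-of-flight mass spectrometer in positive and negative ionization mode, and data collection spanned 3 months. Retention time was obtained from adduct peaks picked computationally and each checked manually.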

SMILES | RP-LC retention time [s]
c1ccc(OCc2nc(-c3ccc4c(c3)nnn4CCN3CCCCC3)no2)cc1 | 698
CC(C)n1c(=O)sc2cc(S(=O)(=O)N3CCC(C(=O)N4CCc5ccccc5C4)CC3)ccc21 | 1000
c1ccc(CCc2nc3nccc(-c4ccncc4)n3n2)cc1 | 713
Cc1ccccc1CNC(=O)c1csc(-c2cn(C)c3ncccc23)n1 | 1120
O=S(=O)(c1cccn2c(SCc3cccc(F)c3)nnc12)N1CCc2ccccc2C1 | 959
Cc1nc(-c2cc(S(=O)(=O)N3CCC(C(=O)NC4CCCCCCC4)CC3)c(C)s2)no1 | 1070
O=C(c1cc2ccccc2[nH]1)N1CCN(c2cc(-c3cccs3)[nH]n2)CC1 | 832
Cc1ccc(-c2nnc(-c3ccccc3)o2)cc1S(=O)(=O)N1CCCCC1 | 1100
CCN(CC)CCOc1ccc(C(=C(Cl)c2ccccc2)c2ccccc2)cc1 | 1010
COc1cccc(-c2cn3ccn(-c4ccc(OC)c(Cl)c4)c(=O)c3n2)c1 | 850
Fc1ccc(Nc2c(-c3ccccc3)nc3cnccn23)cc1 | 844
Cc1ccc(-n2ccc(=O)c(-c3nc(-c4ccccc4)no3)n2)cc1 | 888
O=C(CCCc1ccccc1)N1CCN(c2cc(-c3cccs3)[nH]n2)CC1 | 860
CC1CCN(c2nc3c(c(=O)n(Cc4ccccc4F)c(=O)n3C)n2C)CC1 | 1130
O=C1CC(C(F)(F)F)c2c(c(C(=O)O)cn2-c2cccc(Cl)c2)N1 (centres undefined) | 786
O=c1c2nc(-c3ccc(F)cc3F)cn2ccn1-c1ccc2c(c1)CCC2 | 1030
Cc1cccc(S(=O)(=O)N2CCCN(c3ccc(=O)n(-c4ccc(F)cc4)n3)CC2)c1 | 865
O=C(NCc1cccc(Cl)c1)C1CCCN(c2cnc3nccnc3c2)C1 (centres undefined) | 749

SMILES | RP-LC retention time [s]
O=C(NC1CCCCCC1)C1CCCN(c2nn3c(=O)c4c(nc3s2)CCCC4)C1 (centres undefined) | 838
O=C(c1ccc(Cn2cncn2)cc1)N1CCc2ccccc2C1 | 687
CC(Cc1ccco1)NC(=O)c1cc(-c2ccccn2)nc2ccccc12 (centres undefined) | 843
CCOC(=O)c1cccc(N2C=C(C#N)S(=O)(=O)c3c(F)cccc32)c1 | 907
COC(=O)c1ccc(-c2nc3cnccn3c2Nc2ccc(Cl)cc2)cc1 | 953
CC(C)NC(=O)c1nsc(C(=O)N2CCN(c3ncccn3)CC2)c1N | 764
Cc1cc(-c2c(C)sc(C)c2S(=O)(=O)NCc2ccccc2Cl)n[nH]1 | 1060
COCCCNC(=O)C(C)n1c(=O)c(C(F)(F)F)nc2cc(C)c(C)cc21 (centres undefined) | 1010
NC(=O)c1ccsc1NC(=O)c1ccc(S(=O)(=O)N2CCc3ccccc3C2)cc1 | 877
NS(=O)(=O)c1ccc(CCNC(=O)c2ccc(-n3cnnn3)cc2)cc1 | 622
CCc1ccccc1NC(=O)C1CCCN(c2ncnc3c2nc2n3CCCCC2)C1 (centres undefined) | 802
CCCCN1CCN(S(=O)(=O)c2cc(-c3nnc(CC)o3)co2)CC1 | 608
C[C@]12CCC3C(CC[C@H]4C[C@H](O)CC[C@]34C)C1CC[C@@H]2C(=O)CO (some centres undefined) | 1020
O=C(c1cc(Cl)ccc1Cl)N1CCN(c2cc(-c3cccs3)[nH]n2)CC1 | 870
COc1ccccc1NC(=O)c1oc2ccccc2c1NC(=O)c1c(F)cccc1Cl | 1180
O=C(c1csc(N2CCN(c3ccccc3)CC2)n1)N1CCN(c2ccccn2)CC1 | 685
O=C(NC1CCCCC1)C1CCCN(C(=O)c2cc(-c3ccccn3)n[nH]2)C1 (centres undefined) | 659
O=C(c1ccsc1)N1CCC(n2c(C3CCCC3)nc3cccnc32)C1 (centres undefined) | 636

Next, values leading:

RP-LC retention time [s] | SMILES
598 | COc1ccc(NC(=O)N2CC(N(C(=O)NC(C)C)C3CCOCC3)C2)cc1OC
847 | Cc1ccc(NC(=O)C2CCCN(S(=O)(=O)c3cn(C(C)C)cn3)C2)cc1F (centres undefined)
710 | Cc1noc2nc(C)n(CC(=O)NCc3ccccc3F)c(=O)c12
578 | CC(C)NC(=O)C1Cn2cccc2C(=O)N1 (centres undefined)
898 | Cc1ccc(N2CCC(NC(=O)Nc3ccccc3C(F)(F)F)C2=O)cc1 (centres undefined)
1010 | Cc1cccc(NC(=O)C2CCN(S(=O)(=O)c3ccc4c(c3)sc(=O)n4C(C)C)CC2)c1
776 | COCCn1cc(CCNC(=O)Nc2cc(C)cc(C)c2)c2cccnc21
668 | CCCOC(=O)C1=C(C)NC2=C(C(=O)C(C(=O)OC)C(C)C2)C1c1ccc(N(C)C)cc1 (centres undefined)
679 | CCn1cc(-c2ccncc2)cc1C(=O)NCc1ccc(Cl)cc1
919 | Cc1ccc(C)c(NC(=O)N(C)CCc2noc(COc3ccccc3F)n2)c1
621 | CCN1CCN(CCCNC(=O)c2nc(-c3oc4ccccc4c3C)no2)CC1
874 | Cc1ccc(NC(=O)NC2CCN(c3ccc(F)c(C)c3)C2=O)c(C)c1 (centres undefined)
605 | Cc1nnc2ccc(-c3cccc(NC(=O)C4CCN(S(C)(=O)=O)CC4)c3)nn12
657 | CN1C(=O)c2cccn2CC1C(=O)NCc1ccc2c(c1)OCO2 (centres undefined)
698 | CCNS(=O)(=O)c1cc(-c2c(CC)noc2NC(C)=O)ccc1C
685 | CC(=O)Nc1cccc(C2=NN(C(C)=O)C(c3cccs3)C2)c1 (centres undefined)
988 | CN(C)S(=O)(=O)c1ccc2c(c1)N(CC(=O)Nc1ccc(Cl)cc1)C(=O)C1CCCCN21 (centres undefined)
619 | CCCN1CCN(C(=O)c2sc(-c3cn(C(C)C)c4ncccc34)nc2C)CC1
603 | C=CCN1CCN(c2ccc3nnc(CCc4nc(-c5ccc(OC)cc5)no4)n3n2)CC1
1090 | Cc1cc(C)cc(NC(=O)C2CCCN(c3nc4ccsc4c(=O)n3Cc3ccc(F)cc3)C2)c1 (centres undefined)
907 | CCc1ccccc1NC(=O)N(C)CCc1noc(COc2ccccc2F)n1
579 | CCOC(=O)[C@@H](N)Cc1ccc(O)c(O)c1
732 | CCCN(CC1CCOC1)C(=O)Nc1ccc2c(c1)OCCO2 (centres undefined)
841 | Cc1cc(-c2ccc3c(c2)CCN3C(=O)c2cccc(NC(=O)c3ccco3)c2)on1
832 | CCCC(=O)N1CCc2cn(C)c3cccc(c23)C1
621 | O=C(Nc1ccc2c(c1)OCCO2)c1cc2c(s1)CN(C1CCCC1)C2
1040 | COc1cccc(NC(=O)Cn2nc3cc(C)nc(Nc4ccc(F)c(C)c4)n3c2=O)c1

RP-LC retention time [s] | SMILES
764 | CCCN(CC1CCOC1)C(=O)Nc1ccc(C)cc1 (centres undefined)
1030 | COc1ccccc1OCCC1CCN(S(=O)(=O)Cc2ccccc2F)C1 (centres undefined)
850 | Cc1cccc(N(C)C(=O)Cn2c(N3CCc4ccccc4C3)nc(C)cc2=O)c1
635 | COc1ccc(NC(=O)c2[nH]c3cc(C)sc3c2CN2CCOCC2)cc1OC
859 | Cc1ccc(-c2cc3n(n2)CCCN(C(=O)CCCC(=O)n2nc(C)c4ccccc42)C3)o1
943 | CCOC(=O)c1ccc(Nc2c(-c3ccc(SC)cc3)nc3cnccn23)cc1
639 | Cc1ccc(CN2CCNCC2)cc1NC(=O)CNc1ccc(F)c(F)c1
647 | CC(C)NCc1ccc(-c2ccc(F)cc2)o1
941 | CCCOc1ccc(Nc2nc(C(=O)OCC)nc3ccccc23)cc1
655 | Cc1ccc(CNC(=O)c2cc3n(n2)CCCN(Cc2ccc(Cl)cc2)C3=O)o1
1110 | CCCn1cc(C2=CCN(S(=O)(=O)Cc3cccc(Cl)c3)CC2)c2cccnc21
832 | COc1ccc(CC2C(=O)Nc3ccccc32)cc1Cl (centres undefined)
807 | Cc1noc(-c2ccc(=O)n(Cc3ccc(F)cc3)n2)n1
637 | CCOC(=O)c1cccc(NC(=O)N2CCN(C)c3ncccc32)c1
946 | CCC(C)NC(=O)c1cc2c(n(-c3ccc(C(F)(F)F)cc3)c1=O)CCCC2=O (centres undefined)
852 | CCN(C(=O)Cc1csc2nc(-c3ccccc3)cn12)c1ccccc1
1170 | CCN1C(=O)C2(CCN(S(=O)(=O)c3ccc(C)c(Cl)c3)CC2)c2ccccc21
606 | COc1ccccc1C(CNC(=O)c1cc(=O)c2ccccc2o1)N(C)C (centres undefined)
674 | Cc1ccc(Cl)cc1NC(=O)Cn1c(=O)cnc2cc(C(=O)NC3CC3)ccc21
682 | Cc1ccc(N2CCN(C(=O)c3cn4cccc(C)c4n3)CC2)cc1
762 | CCCNC(=O)C1CCCN(c2nc3ncn(CC(=O)Nc4ccc5c(c4)CCC5)c(=O)c3s2)C1 (centres undefined)
754 | Cc1cccc(C)c1-n1nnc(C(=O)NCC2CCCO2)c1C (centres undefined)
1190 | CC1=C(C(=O)Nc2ccc(Cl)cc2C(=O)NC(C)c2ccccc2)SCCO1 (centres undefined)
954 | CCCOc1ccc(C(=O)Nc2cnn(CC)c(=O)c2N2CCOCC2)cc1
1100 | CCc1ccc(CNC(=O)c2nc3cccnc3n(CC(C)C)c2=O)cc1
1270 | CCN(CC)c1nc2cc(C(=O)OC)ccc2c(=O)n1-c1ccc(C)c(C)c1
